Data taken from patent publication US10179761B2, “Compounds, pharmaceutical composition and their use in treating neurodegenerative diseases” (UNIVERSITE DE LILLE 2 DROIT ET SANTE, priority 2014, dated 2019).
pKi: −log10 of the molar value. Entries after “also recorded” stand apart in the source; their conditions may differ.

How the values were obtained:
[1] = molecular target: σ2 receptors (Homo sapiens (Human), UniProt Q5BJF2); experiment: σ2 binding assay, Jurkat cell membranes, [3H]-DTG in presence of (+)-pentazocine; conditions: hydrochloride salts; mean of 2 or 3 independent experiments; Ki from IC50 (Cheng-Prusoff); read-out: Sigma 2 Ki
Description: The σ binding assays were performed according to Ganapathy et al. (Ganapathy, M. E.; Prasad, P. D.; Huang, W.; Seth, P.; Leibach, F. H.; Ganapathy, V. Molecular and ligand-binding characterization of the sigma-receptor in the Jurkat human T lymphocyte cell line. J. Pharmacol. Exp. Ther. 1999, 289, 251-260). […] The σ2 binding assay was performed by incubating Jurkat cell membranes ([…] protein per tube) with [^3H]-DTG (25 nM) in presence of (+)-pentazocine (1 μM) to saturate σ1 receptors, and a range of concentrations of tested compounds, at room temperature for 1 hour in 5 mM Tris/HCl buffer (pH=7.4). The final assay volume was 0.5 mL. Binding was terminated by rapid filtration through Wathman GF/B filters, which were then washed with 5×1 mL ice-cold NaCl solution and allowed to dry before bound radioactivity was measured using liquid scintillation counting. Nonspecific binding was determined, in both assays, under similar conditions, but in presence of 10 μM unlabeled haloperidol. Inhibition constants (Ki) were calculated from the IC50 values according to the method of Cheng and Prusoff (Cheng, Y.; Prusoff, W. H. Relationship between the inhibition constant (Ki) and the concentration of inhibitor which causes 50 percent inhibition (IC50) of an enzymatic reaction. Biochem Pharmacol. 1973, 22 (23), 3099-108): […]

[2] = test system: SJL/J mice; experiment: EAE model, curative treatment; assay type: in vivo; conditions: p.o. from onset of EAE (grade 2) for 14 days, 0.5 or 1 mg/kg; followed 70 days; FIG. 4
Description: Animals. SJL/J mice were purchased from Janvier (Le Genest-St-Isle, France) and bred under conventional barrier protection at the Pasteur Institute (Lille, France). All experiment protocols and procedures were in compliance with the European Communities Council Directives of 24 Nov. 1986 (86/609/EEC) and were approved by the local ethical committee (CEEA 102009R). Efforts were made to minimize the number of animals used and their suffering. Animals that reached severe hind limb paresis (clinical grade 3) were isolated, and hydration and food access were facilitated.
EAE induction and treatment. The method of EAE induction was similar to previously published methods (Lee-Chang et al., Immunol Lett. 2011 Mar. 30; 135(1-2):108-17). […]
Body weight and clinical signs of EAE were monitored daily. The severity of clinical symptoms was scored based on a standard neurological scoring system for EAE, as follows: grade 0, no disease; grade 1, moderate tail hypotonia and/or slight clumsy gait; grade 2, tail atony and/or clumsy gait; grade 3, severe hind limb paresis; grade 4, paraplegia; grade 5, tetraplegia. […]

[3] = molecular target: σ1 receptors (Homo sapiens (Human), UniProt Q99720); experiment: σ1 binding assay, Jurkat cell membranes, [3H](+)-pentazocine; conditions: hydrochloride salts; mean of 2 or 3 independent experiments; Ki from IC50 (Cheng-Prusoff); read-out: Sigma 1 Ki
σ1 receptors, sequence (Q99720 whole entry): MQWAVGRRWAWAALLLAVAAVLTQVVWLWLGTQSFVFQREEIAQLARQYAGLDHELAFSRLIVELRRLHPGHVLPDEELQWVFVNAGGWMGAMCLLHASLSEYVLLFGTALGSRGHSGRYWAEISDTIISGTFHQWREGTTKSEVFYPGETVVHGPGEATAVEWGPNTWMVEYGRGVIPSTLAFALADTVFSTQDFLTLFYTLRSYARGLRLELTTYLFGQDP

σ2 receptors, sequence (Q5BJF2 whole entry): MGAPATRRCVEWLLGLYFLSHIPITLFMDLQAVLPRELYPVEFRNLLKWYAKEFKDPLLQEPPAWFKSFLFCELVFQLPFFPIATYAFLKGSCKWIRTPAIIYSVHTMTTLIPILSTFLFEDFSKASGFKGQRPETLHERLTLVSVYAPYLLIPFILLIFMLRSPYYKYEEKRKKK

SMILES: CN(CCCNC(=O)c1ccc(Cl)cc1)Cc1ccccc1 [Compound 3.1.10, N-[3-(benzylmethylamino)propyl]-4-chlorobenzamide]
- pKi [1]: 6.72
- EAE clinical course, curative treatment [2]: Amelioration of EAE; also recorded: alleviating the symptoms of EAE
- pKi [3]: 8.49
